Reference: patent US9057094B1, “Nanoparticle-mediated methods for antimicrobial susceptibility testing of bacteria” (UNIVERSITY OF CENTRAL FLORIDA RESEARCH FOUNDATION, INC., priority 2007, dated 2015)

Tests used:
[1] = test system: E. coli; test: Dextran-coated polysaccharide nanosensors, antimicrobial susceptibility in blood-supplemented MH broth; format: cell-based, Escherichia coli; conditions: 2 hours at 37° C., 45 minutes following Con A addition at room temperature
Experimental: (§1) In order to investigate if the dextran-coated iron oxide nanoparticles can monitor the starch utilization due to bacterial metabolic activity, different populations of Escherichia coli (strain 8739 from ATCC) were grown in starch-containing MH broth (DIFCOTM, BD) for 2 hours at 37° C. For determination of the minimum inhibitory concentration, Escherichia coli (10^6 CFU), Serratia marcescens (ATCC, 106 CFU) and Shigella sonnie (strain 9290 from ATCC, 106CFU) were grown in a starch-containing MH broth (DIFCOTM, BD), for 2 hours at 37° C. in the presence or absence of ampicillin. For determination of MIC in blood, bacterial stocks (10^6 CFU) were grown in the presence or absence of ampicillin in a 5%-blood-supplemented starch-containing MH broth, for 2 hours at 37° C. […]
(§2) Lastly, due to the fact that many bacteria can either cause septicemia or require growth in optically turbid media, it is important to assess bacterial susceptibility in these complex matrices. However, most current methods cannot be utilized for the detection of molecular targets and assessment of antimicrobial susceptibility in blood, due to the strong absorbance and scattering from the matrix's constituents, including platelets and red blood cells. […] After 45 minutes following Con A addition at room temperature, we determined that the E. coli's ampicillin MIC was 8 μg, without observing any nanoparticle precipitation.

[2] = test system: E. coli; test: Con A-conjugated nanosensors (non-competition assay), blood cultures; format: cell-based, Escherichia coli; conditions: within 5 minutes after addition of bacterial sample
Experimental: as §1
(§3) In our first set of experiments with the aminated silica-coated nanoparticles, we determined whether these nanoparticles clustered non-specifically in the presence of Con A in solution. […]
(§4) Then, we examined if MIC determination can be achieved using these Con A-conjugated nanosensors, in blood cultures of E. coli and S. marcescens. […] Likewise, within 5 minutes the Con A-conjugated nanosensors assessed that S. marcescens was resistant to ampicillin, further corroborating the findings that the non-competition assay format provides faster results than the competition-based assay of the dextran-coated nanosensors (FIG. 20B).

[3] = test system: S. marcescens; test: as above; format: cell-based, Serratia marcescens; conditions: within 5 minutes after addition of bacterial sample
Experimental: as §1, §3, §4

[4] = test system: E. coli; test: High-throughput Au-NP/Con A assay on 96-well plate; format: cell-based, Escherichia coli; conditions: E. coli 10^6 CFU, Con A 30-min at 25° C.
Description: Finally, the potential of our Au-NP-based assay for the determination of antimicrobial susceptibility in high-throughput format was investigated. In these studies, samples of heat-inactivated E. coli (10^6 CFU) and E. coli (10^6 CFU) grown in the presence or absence of ampicillin were screened with the Au-NP on a 96-well plate using a microtiter plate reader.

[5] = test system: Serratia marcescens; test: Dextran-coated IO NP/Con A magnetic relaxation (ΔT2) assay of antibiotic resistance; format: cell-based; conditions: Serratia marcescens 10^6 CFUs, 2 hours at 37° C. in MH broth; Con A 30-minute incubation at room temperature
Experimental: as §1
(§5) First, we wanted to determine if magnetic IO NPs coated with dextran could be used to determine and quantify the levels of a polysaccharide (starch) in bacterial culture media. […] The samples were examined in a Bruker 0.47 T (20 MHz) magnetic relaxometer (The MiniSpec, Bruker), and the individual sample's changes in spin-spin relaxation times (ΔT2) were determined based on the formula: |ΔT2incubation time−ΔT2prior ConA|. […]
(§6) We then determined the antibiotic susceptibility or resistance of other bacteria utilizing the IO NPs. […]

[6] = test system: Shigella sonnei; test: Dextran-coated IO NP/Con A magnetic relaxation (ΔT2) assay for MIC; format: cell-based; conditions: Shigella sonnei 10^6 CFUs, 2 hours at 37° C. in MH broth; Con A 30-minute incubation at room temperature
Experimental: as §1, §5, §6

[7] = test system: E. coli; test: Turbidity method (24-hour incubation in MH broth) for MIC; format: cell-based, Escherichia coli; conditions: serial dilutions in MH broth, 24-hour incubation at 37° C.
Experimental: Accurate determination of the minimum inhibitory concentration (MIC) can prevent adverse side effects, such as renal toxicity. Considering that the contemporary MIC determination depends on a day-long process, we examined if Au NPs can yield results faster without sacrificing reliability. Initially, E. coli (10^6 CFU) were incubated for 2 hours at 37° C. in MH broth, in the presence of different concentrations of ampicillin. Then, aliquots of these samples were incubated with Au NPs for 30 minutes at 25° C., in the presence of Con A. Based on the shifts of the surface plasmon band, the MIC was determined to be 8 μg, as the corresponding surface plasmon band shift was statistically different than the control, containing bacteria growing in the absence of antibiotic (FIG. 8A). Correlation with standard methods was achieved by inoculating serial dilutions of ampicillin in MH broth with E. coli, followed by a 24-hour long incubation at 37° C. Bacterial growth was assessed based on the broth's turbidity, whereas absence of turbidity was an indicator of successful antimicrobial susceptibility. […] This concentration was identical to the Au NP-determined MIC, though the Au NP-based method yielded the same results much faster.

[8] = test system: E. coli; test: Dextran-coated iron oxide nanoparticle (IO NP)/Con A magnetic relaxation (ΔT2) assay for MIC; format: cell-based, Escherichia coli; conditions: E. coli 10^6 CFUs, 2 hours at 37° C. in MH broth; Con A 30-minute incubation at room temperature
Experimental: as §1, with “ampicillin.” for “ampicillin. For determination of MIC in blood, bacterial stocks (10^6 CFU) were grown in the presence or absence of ampicillin in a 5%-blood-supplemented starch-containing MH broth, for 2 hours at 37° C.”
as §5
Then, utilizing the IO NPs, we determined ampicillin's MIC. […] Specifically, the magnetic-relaxation-determined minimum inhibitory concentration was 8 μg, as at this concentration we observed a drastic change in the values of ΔT2. […]

[9] = test system: E. coli; test: Dextran-coated gold nanoparticle (Au NP)/Con A surface plasmon band shift assay for MIC; format: cell-based, Escherichia coli; conditions: E. coli 10^6 CFU, 2 hours at 37° C. in MH broth; Au NPs + Con A 30 minutes at 25° C.
Experimental: as §1, with “ampicillin.” for “ampicillin. For determination of MIC in blood, bacterial stocks (10^6 CFU) were grown in the presence or absence of ampicillin in a 5%-blood-supplemented starch-containing MH broth, for 2 hours at 37° C.”
Accurate determination of the minimum inhibitory concentration (MIC) can prevent adverse side effects, such as renal toxicity. […] Then, aliquots of these samples were incubated with Au NPs for 30 minutes at 25° C., in the presence of Con A. Based on the shifts of the surface plasmon band, the MIC was determined to be 8 μg, as the corresponding surface plasmon band shift was statistically different than the control, containing bacteria growing in the absence of antibiotic (FIG. 8A). […] Bacterial growth was assessed based on the broth's turbidity, whereas absence of turbidity was an indicator of successful antimicrobial susceptibility. […] This concentration was identical to the Au NP-determined MIC, though the Au NP-based method yielded the same results much faster.

[10] = test system: S. marcescens; test: Dextran-coated polysaccharide nanosensors, antimicrobial susceptibility in blood-supplemented MH broth; format: cell-based, Serratia marcescens; conditions: 2 hours at 37° C., hour-long incubation at 25° C.
Experimental: as §1, §2

CC1(C)S[C@@H]2[C@H](NC(=O)[C@H](N)c3ccccc3)C(=O)N2[C@H]1C(=O)O [ampicillin]
Ampicillin MIC in blood [1]: 8 µg
Ampicillin MIC in blood cultures, Con A-conjugated nanosensors [2]: 8 µg
Drug susceptibility or resistance in blood cultures, Con A-conjugated nanosensors [3]: resistant
Categorization of sample (inhibitory or non-inhibitory) ([4]; 2 μg ampicillin): non-inhibitory
Categorization of sample (inhibitory or non-inhibitory) ([4]; 64 μg ampicillin): inhibitory
Antibiotic susceptibility or resistance (changes in T2) [5]: resistant
Magnetic-relaxation-determined minimum inhibitory concentration [6]: 8 µg
Lowest ampicillin concentration where the MH broth was clear (turbidity MIC) [7]: 8 µg
Magnetic-relaxation-determined minimum inhibitory concentration [8]: 8 µg
MIC (minimum inhibitory concentration) based on shifts of the surface plasmon band [9]: 8 µg
Drug susceptibility or resistance in blood [10]: drug resistance
